We go through 17 compounds from ChEMBL document CHEMBL1135353, “Synthesis and initial SAR studies of 3,6-disubstituted pyrazolo[1,5-a]pyrimidines: a new class of KDR kinase inhibitors” (Bioorg Med Chem Lett, 2002).

A value given as a limit tells only on which side of the number the result lay.

Series [1] has as its target Vascular endothelial growth factor receptor (Homo sapiens, UniProt P17948+P35916+P35968). To be noted: endothelial cell.
Description: Inhibition of VEGF-stimulated mitogenesis in human umbilical vein endothelial cells
Series [2] in a line: Partition coefficient (logP). Type of series: physicochemical. The settings on record: octanol/water.
Series [3] concerns the target Vascular endothelial growth factor receptor 2 (Homo sapiens, UniProt P35968). As to the kind of experiment: Inhibitory activity at VEGF-2 receptor.
Series [4] deals with VEGF-receptor 2 and tyrosine-protein kinase SRC (Homo sapiens) (UniProt P12931+P35968). As to the kind of experiment: Selectivity for Vascular endothelial growth factor receptor 2 over c-Src kinase. Type of series: protein assay.
Series [5] concerns the target Vascular endothelial growth factor receptor 2 and 3 (KDR and Flt-4) (Homo sapiens) (UniProt P35916+P35968). As to the kind of experiment: Selectivity for VEGF-receptor 2 (KDR) over Vascular endothelial growth factor receptor 3 (FLT4). Type of series: protein assay.
Series [6] deals with VEGF-receptor 2 and PDGF-receptor beta (KDR and PDGFR beta) (Homo sapiens) (UniProt P09619+P35968). As to the kind of experiment: Selectivity for Vascular endothelial growth factor receptor 2 over Platelet-derived growth factor receptor beta. Type of series: protein assay.
Sequence of VEGF-receptor 2 and PDGF-receptor beta (KDR and PDGFR beta) (Homo sapiens) (P09619 whole entry, looked up): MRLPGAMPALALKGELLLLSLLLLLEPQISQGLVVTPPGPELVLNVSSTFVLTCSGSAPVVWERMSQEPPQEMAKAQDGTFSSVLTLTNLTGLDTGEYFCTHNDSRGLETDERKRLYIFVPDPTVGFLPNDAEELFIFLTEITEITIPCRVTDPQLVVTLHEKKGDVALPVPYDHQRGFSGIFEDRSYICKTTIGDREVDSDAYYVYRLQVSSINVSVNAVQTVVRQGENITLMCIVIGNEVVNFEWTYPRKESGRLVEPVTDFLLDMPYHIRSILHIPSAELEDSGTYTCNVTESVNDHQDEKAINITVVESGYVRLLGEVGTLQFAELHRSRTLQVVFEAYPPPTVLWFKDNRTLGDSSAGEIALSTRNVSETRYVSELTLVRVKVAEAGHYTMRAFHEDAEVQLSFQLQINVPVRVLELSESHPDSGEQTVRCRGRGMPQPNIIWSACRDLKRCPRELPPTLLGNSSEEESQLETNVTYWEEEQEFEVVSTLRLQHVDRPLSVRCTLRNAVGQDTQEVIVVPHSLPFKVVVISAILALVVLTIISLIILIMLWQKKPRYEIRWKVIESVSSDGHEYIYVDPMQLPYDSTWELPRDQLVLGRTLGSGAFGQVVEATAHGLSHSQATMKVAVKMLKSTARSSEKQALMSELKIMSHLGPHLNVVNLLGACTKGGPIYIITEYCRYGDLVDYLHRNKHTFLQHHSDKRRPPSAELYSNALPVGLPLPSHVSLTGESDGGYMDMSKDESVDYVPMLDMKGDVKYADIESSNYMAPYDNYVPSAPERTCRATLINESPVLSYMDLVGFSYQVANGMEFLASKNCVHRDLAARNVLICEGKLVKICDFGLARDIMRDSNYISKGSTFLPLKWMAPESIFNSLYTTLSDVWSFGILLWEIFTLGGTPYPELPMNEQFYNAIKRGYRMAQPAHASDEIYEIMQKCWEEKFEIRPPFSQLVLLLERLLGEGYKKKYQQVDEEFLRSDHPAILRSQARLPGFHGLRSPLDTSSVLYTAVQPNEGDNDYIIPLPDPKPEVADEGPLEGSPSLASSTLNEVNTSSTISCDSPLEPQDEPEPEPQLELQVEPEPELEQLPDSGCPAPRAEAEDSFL
Sequence of VEGF-receptor 2 and PDGF-receptor beta (KDR and PDGFR beta) (Homo sapiens) (P35968 whole entry, looked up): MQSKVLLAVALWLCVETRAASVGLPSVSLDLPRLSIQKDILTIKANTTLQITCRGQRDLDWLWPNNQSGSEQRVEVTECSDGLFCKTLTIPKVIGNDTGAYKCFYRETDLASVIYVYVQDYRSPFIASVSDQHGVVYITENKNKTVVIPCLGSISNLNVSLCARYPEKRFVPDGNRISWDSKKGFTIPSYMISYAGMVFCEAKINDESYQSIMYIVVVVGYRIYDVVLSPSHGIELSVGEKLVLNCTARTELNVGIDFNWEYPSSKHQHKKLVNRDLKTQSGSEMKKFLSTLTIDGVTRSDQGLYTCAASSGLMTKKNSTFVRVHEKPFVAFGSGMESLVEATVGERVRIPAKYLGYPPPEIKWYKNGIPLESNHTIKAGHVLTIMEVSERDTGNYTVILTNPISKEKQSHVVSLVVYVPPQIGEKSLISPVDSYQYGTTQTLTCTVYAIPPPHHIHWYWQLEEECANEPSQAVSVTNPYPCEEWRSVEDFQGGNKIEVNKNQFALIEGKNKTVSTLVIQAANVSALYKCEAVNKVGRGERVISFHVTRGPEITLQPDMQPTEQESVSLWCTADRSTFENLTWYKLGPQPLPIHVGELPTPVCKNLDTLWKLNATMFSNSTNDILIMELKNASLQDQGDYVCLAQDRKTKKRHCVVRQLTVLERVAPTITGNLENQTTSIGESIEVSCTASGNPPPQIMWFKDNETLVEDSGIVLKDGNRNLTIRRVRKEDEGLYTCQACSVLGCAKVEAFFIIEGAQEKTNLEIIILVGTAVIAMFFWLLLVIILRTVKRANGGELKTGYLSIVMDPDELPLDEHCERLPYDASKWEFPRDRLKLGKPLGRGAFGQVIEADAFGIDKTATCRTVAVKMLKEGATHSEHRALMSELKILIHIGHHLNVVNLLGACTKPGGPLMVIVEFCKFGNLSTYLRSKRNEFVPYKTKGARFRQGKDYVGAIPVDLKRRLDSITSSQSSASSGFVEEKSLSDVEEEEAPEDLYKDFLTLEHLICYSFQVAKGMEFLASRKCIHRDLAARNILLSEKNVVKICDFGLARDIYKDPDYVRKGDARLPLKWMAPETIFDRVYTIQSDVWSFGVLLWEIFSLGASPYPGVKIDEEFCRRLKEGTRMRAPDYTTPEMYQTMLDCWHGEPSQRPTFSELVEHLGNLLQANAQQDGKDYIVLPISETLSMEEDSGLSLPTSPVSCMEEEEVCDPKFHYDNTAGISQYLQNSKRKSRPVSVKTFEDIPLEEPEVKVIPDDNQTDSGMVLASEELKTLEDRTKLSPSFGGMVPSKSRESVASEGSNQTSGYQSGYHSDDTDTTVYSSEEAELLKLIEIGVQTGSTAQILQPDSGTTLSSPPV

Sequence of Vascular endothelial growth factor receptor 2 (P35968 whole entry): as the sequence (P35968 whole entry, looked up) above
Sequence of VEGF-receptor 2 and tyrosine-protein kinase SRC (Homo sapiens) (P12931 whole entry, looked up): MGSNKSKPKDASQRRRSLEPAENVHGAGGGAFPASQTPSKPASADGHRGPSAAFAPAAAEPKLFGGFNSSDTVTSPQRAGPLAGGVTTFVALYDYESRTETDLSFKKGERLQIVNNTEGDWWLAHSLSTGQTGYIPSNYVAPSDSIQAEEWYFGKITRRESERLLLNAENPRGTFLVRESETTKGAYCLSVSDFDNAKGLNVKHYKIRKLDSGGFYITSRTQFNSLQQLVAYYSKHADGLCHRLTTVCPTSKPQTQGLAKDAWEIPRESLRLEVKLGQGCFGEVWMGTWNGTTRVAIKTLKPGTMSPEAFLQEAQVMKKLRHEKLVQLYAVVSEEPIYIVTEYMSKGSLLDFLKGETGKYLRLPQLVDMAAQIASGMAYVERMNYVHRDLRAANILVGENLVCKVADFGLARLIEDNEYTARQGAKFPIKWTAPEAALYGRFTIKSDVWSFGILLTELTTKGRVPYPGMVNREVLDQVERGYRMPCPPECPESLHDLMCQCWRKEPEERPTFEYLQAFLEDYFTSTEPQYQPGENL
Sequence of VEGF-receptor 2 and tyrosine-protein kinase SRC (Homo sapiens) (P35968 whole entry, looked up): as the sequence (P35968 whole entry, looked up) above
Sequence of Vascular endothelial growth factor receptor 2 and 3 (KDR and Flt-4) (Homo sapiens) (P35916 whole entry, looked up): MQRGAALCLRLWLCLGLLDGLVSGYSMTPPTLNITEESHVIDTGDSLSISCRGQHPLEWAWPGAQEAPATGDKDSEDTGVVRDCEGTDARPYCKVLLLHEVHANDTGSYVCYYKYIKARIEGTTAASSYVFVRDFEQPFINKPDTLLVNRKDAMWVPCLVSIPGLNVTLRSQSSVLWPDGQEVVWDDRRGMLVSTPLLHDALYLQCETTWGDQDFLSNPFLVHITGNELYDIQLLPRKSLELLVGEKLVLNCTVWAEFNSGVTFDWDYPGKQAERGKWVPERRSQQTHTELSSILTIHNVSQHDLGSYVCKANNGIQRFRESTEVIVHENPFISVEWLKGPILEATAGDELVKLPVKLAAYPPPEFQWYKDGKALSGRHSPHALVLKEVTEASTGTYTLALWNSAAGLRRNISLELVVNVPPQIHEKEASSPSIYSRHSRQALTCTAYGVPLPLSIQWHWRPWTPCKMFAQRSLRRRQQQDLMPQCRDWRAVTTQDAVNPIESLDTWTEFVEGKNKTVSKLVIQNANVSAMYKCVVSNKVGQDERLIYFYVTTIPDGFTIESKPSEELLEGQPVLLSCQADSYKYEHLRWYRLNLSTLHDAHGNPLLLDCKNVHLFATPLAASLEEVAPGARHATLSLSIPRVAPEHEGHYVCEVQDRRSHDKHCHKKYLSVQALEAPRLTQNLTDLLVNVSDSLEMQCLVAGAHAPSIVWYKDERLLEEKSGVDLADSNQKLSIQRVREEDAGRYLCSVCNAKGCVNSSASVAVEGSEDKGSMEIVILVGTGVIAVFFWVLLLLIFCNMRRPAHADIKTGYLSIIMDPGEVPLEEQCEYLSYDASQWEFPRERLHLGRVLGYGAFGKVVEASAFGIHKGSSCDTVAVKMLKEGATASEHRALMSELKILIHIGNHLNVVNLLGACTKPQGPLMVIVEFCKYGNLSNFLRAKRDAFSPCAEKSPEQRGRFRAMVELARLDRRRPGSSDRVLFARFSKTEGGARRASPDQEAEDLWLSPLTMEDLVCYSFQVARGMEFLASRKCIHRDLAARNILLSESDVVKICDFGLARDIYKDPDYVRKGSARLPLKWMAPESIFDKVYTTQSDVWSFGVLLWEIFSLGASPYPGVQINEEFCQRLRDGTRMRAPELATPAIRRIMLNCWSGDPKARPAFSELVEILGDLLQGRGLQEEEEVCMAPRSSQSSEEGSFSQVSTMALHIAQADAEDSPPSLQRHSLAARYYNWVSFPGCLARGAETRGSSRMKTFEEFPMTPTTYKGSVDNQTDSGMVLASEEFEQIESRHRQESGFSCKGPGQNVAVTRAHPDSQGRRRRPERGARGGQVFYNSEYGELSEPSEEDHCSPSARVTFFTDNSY
Sequence of Vascular endothelial growth factor receptor 2 and 3 (KDR and Flt-4) (Homo sapiens) (P35968 whole entry, looked up): as the sequence (P35968 whole entry, looked up) above

In turn, `c1cc(-c2cnc3c(-c4ccsc4)cnn3c2)ccn1` yielded a concentration for half-maximal inhibition (IC50) in series [1] of 127 nM.

`c1cc(-c2cnc3c(-c4ccncc4)cnn3c2)ccn1` returned a lipophilicity (logP) in series [2] of 2.5.

The compound `COc1ccc(-c2cnc3c(-c4ccccn4)cnn3c2)cc1` registered an IC50 in series [3] of 1000 nM.

As for `c1cc(-c2cnn3cc(C4CCCCC4)cnc23)cs1`, the IC50 in series [3] stood at 280 nM.

In series [3], `Clc1ccc(-c2cnc3c(-c4ccncc4)cnn3c2)cc1` yielded an IC50 of 113 nM.

Consider `C1=C(c2cnn3cc(-c4ccncc4)cnc23)CCCC1`, for which the IC50 in series [3] was found to be 41 nM. Compared with the last compound, the IC50 is about 2.8-fold lower.

`Cc1ccc(-c2cnc3c(-c4ccncc4)cnn3c2)cc1` came in with an IC50 in series [3] of 62 nM.

In turn, `Clc1cccc(-c2cnn3cc(-c4ccncc4)cnc23)c1` registered an IC50 in series [3] of 350 nM.

With `Fc1ccc(-c2cnn3cc(-c4ccncc4)cnc23)cc1Cl`, the concentration for half-maximal inhibition (IC50) in series [3] amounted to 265 nM.

In turn, `COc1ccc(-c2cnc3c(-c4ccsc4)cnn3c2)cc1` registered a logP in series [2] of over 4.

In series [2], `COc1ccc(-c2cnc3c(-c4ccncc4)cnn3c2)cc1` showed a logP of 4. Also, the Ratio is 27 in series [4], 2.2 in series [5] and 0.5 in series [6].

As for `C1=C(c2cnn3cc(-c4ccncc4)cnc23)CCC1`, it took 28 nM to reach half-maximal inhibition in series [3] (IC50).

For the compound `c1ccc(-c2cnn3cc(-c4ccccn4)cnc23)cc1`, the IC50 in series [3] amounted to 88 nM.

In series [3], `Fc1ccc(-c2cnn3cc(-c4ccncc4)cnc23)cc1` came in with an IC50 of 63 nM. This IC50 and that of the compound before are within 1.5-fold of each other.

Consider `c1ccc(-c2cnn3cc(-c4ccncc4)cnc23)cc1`, for which, in series [3], the IC50 worked out at 71 nM.

`COc1ccc(-c2cnc3c(-c4cccnc4)cnn3c2)cc1`: the concentration for half-maximal inhibition (IC50) in series [3] was 41 nM.

`COc1cccc(-c2cnn3cc(-c4ccncc4)cnc23)c1` registered an IC50 in series [3] of 510 nM.

A word on the IC50: it is the concentration that gives 50% inhibition. A higher IC50 goes with weaker potency. By logP is commonly meant a log measure of how a compound divides between an organic and an aqueous phase. Read a high logP as higher lipophilicity.
